Legend:
[1] = molecular target: Voltage-gated inwardly rectifying potassium channel KCNH2 (Homo sapiens, UniProt Q12809); format: functional
Glucocorticoid receptor = molecular target: T1, Glucocorticoid receptor (Homo sapiens, UniProt P04150)
T1 sequence (P04150 whole entry): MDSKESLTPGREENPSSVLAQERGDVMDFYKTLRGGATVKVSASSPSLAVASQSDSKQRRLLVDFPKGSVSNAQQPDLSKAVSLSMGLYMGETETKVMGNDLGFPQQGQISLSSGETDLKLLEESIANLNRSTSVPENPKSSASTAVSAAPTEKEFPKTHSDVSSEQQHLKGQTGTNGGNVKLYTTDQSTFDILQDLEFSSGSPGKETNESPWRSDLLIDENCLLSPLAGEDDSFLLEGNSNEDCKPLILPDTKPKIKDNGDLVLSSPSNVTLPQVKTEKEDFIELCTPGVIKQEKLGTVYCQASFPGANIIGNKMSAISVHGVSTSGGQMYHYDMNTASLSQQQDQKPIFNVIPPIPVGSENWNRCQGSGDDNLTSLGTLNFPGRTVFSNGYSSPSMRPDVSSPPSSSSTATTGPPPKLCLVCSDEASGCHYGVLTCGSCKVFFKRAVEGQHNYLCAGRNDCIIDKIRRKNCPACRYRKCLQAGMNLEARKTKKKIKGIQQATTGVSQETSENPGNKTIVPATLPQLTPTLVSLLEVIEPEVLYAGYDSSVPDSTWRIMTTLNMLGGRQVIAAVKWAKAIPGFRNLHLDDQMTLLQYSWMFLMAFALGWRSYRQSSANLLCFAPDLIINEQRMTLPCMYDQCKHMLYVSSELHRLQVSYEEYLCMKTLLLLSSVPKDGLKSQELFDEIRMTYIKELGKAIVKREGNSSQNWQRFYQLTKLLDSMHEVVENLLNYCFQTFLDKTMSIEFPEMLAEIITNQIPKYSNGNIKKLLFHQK

Histamine H2 receptor = Histamine H2 receptor (Homo sapiens, UniProt P25021); format: functional, cell-based
[2] = molecular target: T2, Amine oxidase [flavin-containing] A (Homo sapiens, UniProt P21397); format: functional
T2 sequence (P21397 whole entry): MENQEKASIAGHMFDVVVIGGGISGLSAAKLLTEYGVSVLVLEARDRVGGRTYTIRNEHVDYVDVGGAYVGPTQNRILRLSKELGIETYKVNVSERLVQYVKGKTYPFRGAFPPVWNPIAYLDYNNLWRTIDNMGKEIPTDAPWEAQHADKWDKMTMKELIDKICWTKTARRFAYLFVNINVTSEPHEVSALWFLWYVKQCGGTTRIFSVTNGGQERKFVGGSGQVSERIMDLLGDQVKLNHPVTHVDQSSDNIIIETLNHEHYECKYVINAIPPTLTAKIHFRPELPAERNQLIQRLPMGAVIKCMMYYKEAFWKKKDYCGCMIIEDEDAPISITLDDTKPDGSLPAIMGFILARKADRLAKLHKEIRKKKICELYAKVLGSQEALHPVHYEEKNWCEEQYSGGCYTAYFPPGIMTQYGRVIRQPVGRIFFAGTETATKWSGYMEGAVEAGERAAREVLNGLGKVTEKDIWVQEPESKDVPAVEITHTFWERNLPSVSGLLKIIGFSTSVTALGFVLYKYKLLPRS

Thromboxane A2 receptor = molecular target: T3, Thromboxane A2 receptor (Homo sapiens, UniProt P21731)
T3 sequence (P21731 whole entry): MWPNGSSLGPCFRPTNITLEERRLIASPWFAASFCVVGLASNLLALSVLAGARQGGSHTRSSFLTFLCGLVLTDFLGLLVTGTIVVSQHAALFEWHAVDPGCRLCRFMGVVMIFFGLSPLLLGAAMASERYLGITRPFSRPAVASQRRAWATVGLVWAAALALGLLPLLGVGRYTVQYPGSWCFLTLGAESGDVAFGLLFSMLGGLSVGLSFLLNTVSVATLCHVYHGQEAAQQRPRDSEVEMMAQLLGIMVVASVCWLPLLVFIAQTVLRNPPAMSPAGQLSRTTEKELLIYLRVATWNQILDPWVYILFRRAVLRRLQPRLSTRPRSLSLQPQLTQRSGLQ

[3] = molecular target: T4, Alpha-1A adrenergic receptor (Homo sapiens, UniProt P35348); format: functional, cell-based
T4 sequence (P35348 whole entry): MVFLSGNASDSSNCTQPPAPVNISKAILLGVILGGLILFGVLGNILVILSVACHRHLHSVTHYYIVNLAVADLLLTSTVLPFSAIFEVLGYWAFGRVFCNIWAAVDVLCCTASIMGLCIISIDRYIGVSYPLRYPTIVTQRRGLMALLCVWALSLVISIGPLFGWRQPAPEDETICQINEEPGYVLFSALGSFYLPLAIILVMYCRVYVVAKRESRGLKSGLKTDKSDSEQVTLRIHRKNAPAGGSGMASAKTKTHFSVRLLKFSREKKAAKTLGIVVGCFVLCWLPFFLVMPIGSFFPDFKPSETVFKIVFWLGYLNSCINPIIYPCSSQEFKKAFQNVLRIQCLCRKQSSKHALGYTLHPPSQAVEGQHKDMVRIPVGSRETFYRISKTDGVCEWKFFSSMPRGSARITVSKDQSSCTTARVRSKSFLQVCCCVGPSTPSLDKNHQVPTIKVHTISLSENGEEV

[4] = molecular target: T5, Alpha-2A adrenergic receptor (Homo sapiens, UniProt P08913); format: functional, cell-based
T5 sequence (P08913 whole entry): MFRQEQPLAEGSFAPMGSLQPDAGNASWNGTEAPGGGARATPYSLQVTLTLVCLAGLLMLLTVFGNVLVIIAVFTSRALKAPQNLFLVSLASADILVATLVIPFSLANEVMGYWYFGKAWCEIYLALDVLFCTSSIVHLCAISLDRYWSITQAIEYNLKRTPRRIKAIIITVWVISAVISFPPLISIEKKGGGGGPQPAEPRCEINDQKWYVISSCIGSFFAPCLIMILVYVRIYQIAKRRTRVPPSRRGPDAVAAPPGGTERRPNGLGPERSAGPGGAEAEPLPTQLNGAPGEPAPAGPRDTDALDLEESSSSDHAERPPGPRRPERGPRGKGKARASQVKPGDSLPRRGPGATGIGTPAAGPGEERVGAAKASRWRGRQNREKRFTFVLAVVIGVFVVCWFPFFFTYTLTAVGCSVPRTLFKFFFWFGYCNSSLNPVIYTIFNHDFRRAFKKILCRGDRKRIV

[5] = molecular target: Glutamate receptor ionotropic, NMDA 1 (Rattus norvegicus, UniProt P35439)
Also: assay procedure not described here.

Voltage-gated inwardly rectifying potassium channel KCNH2, sequence (Q12809 whole entry): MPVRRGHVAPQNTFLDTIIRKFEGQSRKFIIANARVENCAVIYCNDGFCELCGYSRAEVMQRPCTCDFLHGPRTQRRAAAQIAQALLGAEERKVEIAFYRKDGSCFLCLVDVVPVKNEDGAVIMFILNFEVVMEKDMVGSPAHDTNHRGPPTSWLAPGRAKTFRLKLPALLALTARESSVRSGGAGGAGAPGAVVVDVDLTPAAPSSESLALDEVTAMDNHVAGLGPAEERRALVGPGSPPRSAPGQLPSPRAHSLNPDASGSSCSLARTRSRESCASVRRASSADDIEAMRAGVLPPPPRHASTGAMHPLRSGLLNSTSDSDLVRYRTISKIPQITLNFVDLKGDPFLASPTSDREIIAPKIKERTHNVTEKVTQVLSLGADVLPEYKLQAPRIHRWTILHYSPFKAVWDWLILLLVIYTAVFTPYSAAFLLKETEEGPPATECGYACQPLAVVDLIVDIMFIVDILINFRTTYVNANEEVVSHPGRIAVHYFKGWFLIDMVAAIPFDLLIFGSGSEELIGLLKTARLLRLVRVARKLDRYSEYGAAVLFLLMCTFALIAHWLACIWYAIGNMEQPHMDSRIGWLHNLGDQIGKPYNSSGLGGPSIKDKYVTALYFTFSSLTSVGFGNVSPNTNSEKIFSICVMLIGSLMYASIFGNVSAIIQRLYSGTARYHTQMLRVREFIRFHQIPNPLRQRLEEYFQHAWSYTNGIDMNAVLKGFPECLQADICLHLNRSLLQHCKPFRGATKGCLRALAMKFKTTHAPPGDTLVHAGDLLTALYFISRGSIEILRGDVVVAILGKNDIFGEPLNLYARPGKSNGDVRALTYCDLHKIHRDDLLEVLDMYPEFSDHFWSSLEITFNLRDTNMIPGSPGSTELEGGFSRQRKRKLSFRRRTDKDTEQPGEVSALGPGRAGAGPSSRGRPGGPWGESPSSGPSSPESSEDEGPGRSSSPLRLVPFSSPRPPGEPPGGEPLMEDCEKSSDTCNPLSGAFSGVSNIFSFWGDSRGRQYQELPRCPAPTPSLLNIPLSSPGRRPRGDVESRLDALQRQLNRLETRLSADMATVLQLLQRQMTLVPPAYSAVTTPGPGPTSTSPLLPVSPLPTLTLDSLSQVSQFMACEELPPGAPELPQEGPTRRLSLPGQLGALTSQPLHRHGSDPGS
Histamine H2 receptor, sequence (P25021 whole entry): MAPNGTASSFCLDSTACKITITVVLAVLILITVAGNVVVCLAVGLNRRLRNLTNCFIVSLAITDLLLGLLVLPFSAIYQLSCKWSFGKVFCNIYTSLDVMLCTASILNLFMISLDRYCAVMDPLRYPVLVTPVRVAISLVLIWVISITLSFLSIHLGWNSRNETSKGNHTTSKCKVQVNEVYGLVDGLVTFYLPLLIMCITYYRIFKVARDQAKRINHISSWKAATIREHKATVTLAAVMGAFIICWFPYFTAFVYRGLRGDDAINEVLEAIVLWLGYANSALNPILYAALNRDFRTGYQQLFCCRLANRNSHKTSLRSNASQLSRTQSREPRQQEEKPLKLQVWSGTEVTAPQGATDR

SMILES | AC50 [1] | AC50 (Glucocorticoid receptor) | AC50 (Histamine H2 receptor) | AC50 [2] | AC50 (Thromboxane A2 receptor) | AC50 [3] | AC50 [4] | AC50 [5]
CCN1CC(CCN2CCOCC2)C(c2ccccc2)(c2ccccc2)C1=O (configuration not stated) [DOXAPRAM] | 10.5 µM | > 30 µM | > 30 µM | > 30 µM | > 30 µM | > 30 µM | > 30 µM | > 30 µM
CCCCOc1ccc(C(=O)CCN2CCCCC2)cc1 [DYCLONINE] | 3.3 µM | > 30 µM | > 10 µM | > 10 µM | > 30 µM | > 30 µM | > 10 µM | > 10 µM
CCc1cc2c(s1)-n1c(C)nnc1CN=C2c1ccccc1Cl [ETIZOLAM] | > 30 µM | > 30 µM | > 30 µM | > 30 µM | > 30 µM | > 30 µM | > 30 µM | > 30 µM
CC/C=C\C/C=C\C/C=C\C/C=C\C/C=C\CCCC(=O)OCC [ICOSAPENT ETHYL] | > 30 µM | > 30 µM | > 30 µM | > 30 µM | > 30 µM | > 30 µM | > 30 µM | > 30 µM
NNC(=O)c1ccncc1 [ISONIAZID] | > 30 µM | > 30 µM | > 10 µM | > 30 µM | > 30 µM | > 30 µM | > 30 µM | > 30 µM
CN1CCN=C(c2ccccc2)c2cc(Cl)ccc21 [MEDAZEPAM] |  | > 30 µM | > 30 µM | > 30 µM | > 30 µM | > 30 µM | > 30 µM | > 30 µM
COc1ccc2cc(CCC(C)=O)ccc2c1 [NABUMETONE] | > 30 µM | > 10 µM | > 30 µM |  | > 10 µM | > 30 µM | > 10 µM | > 10 µM
COc1cc2[nH]c(C)c(CCN3CCN(c4ccccc4)CC3)c2cc1OC [OXYPERTINE] |  | > 30 µM | > 30 µM | > 30 µM | > 30 µM | > 30 µM | 7.4 µM | > 30 µM
Cc1cc(C)nc(NS(=O)(=O)c2ccc(N)cc2)n1 [SULFAMETHAZINE] | > 30 µM | > 10 µM | > 30 µM | > 30 µM | > 10 µM |  | > 10 µM | > 10 µM
C=CCN1CCc2nc(N)sc2CC1 [TALIPEXOLE] | > 30 µM | > 30 µM | > 30 µM | > 30 µM | > 30 µM | 2.5 µM |  | > 30 µM
CCOC(=O)[C@@H](N)Cc1ccc(-c2cc(O[C@H](c3ccc(Cl)cc3-n3ccc(C)n3)C(F)(F)F)nc(N)n2)cc1 [TELOTRISTAT ETHYL] | 26 µM | 23 µM | > 30 µM | > 30 µM |  | > 30 µM | > 30 µM | > 30 µM

Reference: ChEMBL document CHEMBL5291721, “A preclinical secondary pharmacology resource illuminates target-adverse drug reaction associations of marketed drugs” (Nat Commun, 2023)
